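Assay format: 96-well plates, 48-hour exposure. TGI: total growth inhibition.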
How the values were obtained:
Assay in all cases: NCI-60 cell line screen, 48 h
DLD-1 colon = test system: DLD-1 colon
EKVX NSCLC = test system: EKVX NSCLC
HCC-2998 colon = test system: HCC-2998 colon
HL-60(TB) leukemia = test system: HL-60(TB) leukemia
HOP-62 NSCLC = test system: HOP-62 NSCLC
IGROV1 ovarian = test system: IGROV1 ovarian
KM12 colon = test system: KM12 colon
M14 melanoma = test system: M14 melanoma
MOLT-4 leukemia = test system: MOLT-4 leukemia
NCI-H522 lung = test system: NCI-H522 lung
OVCAR-5 ovarian = test system: OVCAR-5 ovarian
OVCAR-8 ovarian = test system: OVCAR-8 ovarian
RPMI-8226 leukemia = test system: RPMI-8226 leukemia
SF-295 CNS = test system: SF-295 CNS
SK-MEL-5 melanoma = test system: SK-MEL-5 melanoma
SK-OV-3 ovarian = test system: SK-OV-3 ovarian
SR leukemia = test system: SR leukemia
DU-145 prostate = test system: DU-145 prostate
NCI-H226 lung = test system: NCI-H226 lung
OVCAR-4 ovarian = test system: OVCAR-4 ovarian

| SMILES | TGI (DLD-1 colon) [µM] | TGI (EKVX NSCLC) [µM] | TGI (HCC-2998 colon) [µM] | TGI (HL-60(TB) leukemia) [µM] | TGI (HOP-62 NSCLC) [µM] | TGI (IGROV1 ovarian) [µM] | TGI (KM12 colon) [µM] | TGI (M14 melanoma) [µM] | TGI (MOLT-4 leukemia) [µM] | TGI (NCI-H522 lung) [µM] | TGI (OVCAR-5 ovarian) [µM] | TGI (OVCAR-8 ovarian) [µM] | TGI (RPMI-8226 leukemia) [µM] | TGI (SF-295 CNS) [µM] | TGI (SK-MEL-5 melanoma) [µM] | TGI (SK-OV-3 ovarian) [µM] | TGI (SR leukemia) [µM] | TGI (DU-145 prostate) [µM] | TGI (NCI-H226 lung) [µM] | TGI (OVCAR-4 ovarian) [µM] |
| --- | --- | --- | --- | --- | --- | --- | --- | --- | --- | --- | --- | --- | --- | --- | --- | --- | --- | --- | --- | --- |
| CC(=O)NC1=C(N)C(=O)c2ccccc2C1=O | > 100 | > 100 | > 100 | > 100 | > 100 | > 100 | > 100 | > 100 | > 100 | > 100 | > 100 | > 100 | > 100 | > 100 | > 100 | > 100 | – | – | – | – |
| O=C(O)c1ccc(Nc2nc3nn(Cc4ccccc4)cc3c(=O)s2)cc1 | > 100 | > 100 | > 100 | > 100 | > 100 | > 100 | > 100 | > 100 | > 100 | > 100 | > 100 | > 100 | > 100 | > 100 | > 100 | > 100 | > 100 | – | – | – |
| CCC(=O)Nc1ccc(NCC(=O)Nc2ccc(OC)cc2)cc1 | – | 70.7 | 35.5 | > 100 | 11.6 | 78 | > 100 | > 100 | > 100 | 29.5 | 37.2 | 42.8 | 90.5 | > 100 | 32.7 | 95.3 | > 100 | > 100 | 37.7 | 35.2 |
| NS(=O)(=O)c1nnc(NS(=O)(=O)c2ccc([N+](=O)[O-])cc2)s1 | – | > 100 | > 100 | > 100 | > 100 | > 100 | > 100 | > 100 | > 100 | 77.5 | > 100 | > 100 | > 100 | > 100 | > 100 | > 100 | > 100 | > 100 | > 100 | > 100 |
| COc1cccc2cc(C(=O)NC34CC5CC(CC(C5)C3)C4)c(=N)oc12 | – | > 100 | > 100 | 29.6 | > 100 | > 85.7 | > 100 | > 100 | 23.2 | > 88.7 | > 100 | > 50.6 | > 77.9 | > 100 | > 100 | > 100 | > 47.4 | > 100 | > 100 | > 100 |
| CCn1c(CSc2nc(-c3ccccc3)c(-c3ccccc3)[nH]2)n[nH]c1=S | > 100 | > 100 | > 100 | > 100 | > 100 | > 100 | > 100 | > 100 | > 100 | > 100 | > 100 | > 100 | > 100 | > 100 | > 100 | > 100 | > 100 | – | > 100 | > 100 |
| C#C[C@]1(O)CC[C@H]2[C@@H]3CCC4=C/C(=N/OC(=O)c5cccc6c(=O)c7ccccc7[nH]c56)CCC4[C@H]3CC[C@@]21CC (stereo partly drawn) | – | > 100 | > 90.9 | 11.7 | > 100 | > 100 | > 100 | > 100 | > 69.2 | 56.1 | > 100 | > 100 | 10.6 | > 100 | > 53.1 | > 100 | 35.7 | > 100 | > 100 | > 100 |
| C=CC[C@]1(C2=NC(C)(C)CO2)c2ccccc2-c2ccccc2[C@H]1C(C)=O | – | 40.6 | 20.7 | 15.8 | 32.7 | > 48.6 | 38.6 | 21.7 | 50 | 9.45 | 51 | > 52.8 | 33.5 | 19.1 | 12.7 | > 54.9 | 14 | 29.6 | 30 | > 69 |
| Cc1cc(N(CCC#N)CCC#N)ccc1/C(N=Nc1ccc([N+](=O)[O-])cc1)=N\NC(=O)c1ccccc1 | – | > 100 | > 100 | > 100 | > 100 | > 100 | > 100 | > 100 | > 100 | 44.7 | > 100 | > 100 | > 100 | > 100 | > 100 | > 100 | > 100 | > 100 | > 100 | > 100 |
| CCN(CC)CCN1C(=O)C(=O)N(c2cccc3ccccc23)C1=O | – | > 10 | > 10 | > 10 | > 10 | > 10 | > 10 | > 10 | > 10 | > 10 | > 10 | > 10 | > 10 | > 10 | > 10 | > 10 | > 10 | > 10 | > 10 | > 10 |
| O=C(Nc1ccc2cc3ccccc3cc2c1)c1cc2c(cc1Cl)Sc1nccn1S2(=O)=O | – | > 100 | 95.8 | 46.9 | > 100 | > 100 | > 100 | > 100 | > 100 | > 100 | 93.5 | > 100 | > 100 | > 100 | > 100 | > 100 | > 100 | > 100 | > 100 | > 100 |
| O=C1NC(=Nc2ccccc2Cl)N/C1=C\c1ccc(Cl)cc1Cl | – | > 100 | > 100 | 1.84 | > 100 | > 100 | > 100 | > 100 | > 100 | > 100 | > 100 | > 100 | > 100 | > 100 | > 100 | > 100 | > 100 | > 100 | 57.6 | > 100 |
| C[n+]1ccccc1/C1=c2\cc/c([nH]2)=C(\c2cccc[n+]2C)C2=N/C(=C(/c3cccc[n+]3C)C3C=CC(N3)/C(c3cccc[n+]3C)=C3/C=CC1=N3)C=C2 | – | > 100 | > 100 | > 100 | > 100 | > 100 | > 100 | > 100 | > 100 | > 100 | > 100 | > 100 | > 100 | > 100 | > 100 | > 100 | > 100 | > 100 | > 100 | > 100 |
| COc1ccc(/C=C/C(=O)Oc2ccccc2OC)cc1 | – | > 100 | 43.3 | > 32.5 | > 62.4 | > 51.2 | 31.3 | > 100 | 3.44 | > 72 | 98.2 | > 71.9 | 5.22 | 10.7 | > 100 | > 100 | 32.3 | > 100 | > 100 | > 60.7 |
| N#Cc1c(-c2ccc([N+](=O)[O-])cc2)cc(-c2ccc(Nc3ccnc4cc(Cl)ccc34)cc2)nc1N | – | 38 | 43.2 | 26 | 29.7 | 15 | 14.7 | 41.9 | 5.4 | 11.2 | 45.6 | > 23.3 | 15 | 37.6 | > 55.4 | 52.5 | 2.48 | 33.2 | > 95.2 | 15.2 |
| COc1cc(S(=O)(=O)Nc2ccc(-c3csc(N4C(=O)C(Cl)C4c4cccs4)n3)cc2)ccc1Cl (stereo not drawn) | – | > 100 | > 100 | > 100 | > 100 | > 100 | > 100 | > 100 | > 100 | 30.6 | > 100 | > 100 | > 100 | > 100 | > 100 | > 100 | 91.5 | > 100 | > 100 | 77.5 |
| Cc1cc2nnc(C(N)=O)c(N)c2cc1C | – | > 100 | > 100 | > 100 | > 100 | > 100 | > 100 | > 100 | > 100 | > 100 | > 100 | > 100 | > 100 | > 100 | > 100 | > 100 | > 100 | > 100 | > 100 | > 100 |
| O/N=C\C(=Nc1ccc(Cc2ccc(N=C(/C=N\O)NO)cc2)cc1)NO | > 100 | > 100 | > 100 | 66.5 | > 100 | > 100 | > 100 | > 100 | > 100 | > 100 | > 100 | > 100 | > 100 | > 100 | > 100 | > 100 | – | – | > 100 | > 100 |
| Nc1c2cc3ccc2nc2ccc(cc12)OCCOCCOCCOCCOCCOCCO3 | – | > 10 | > 10 | > 10 | > 10 | > 10 | > 10 | > 10 | > 10 | > 10 | > 10 | > 10 | > 10 | > 10 | > 10 | > 10 | > 10 | > 10 | > 10 | > 10 |
| O=C(c1ccco1)N(C(=S)N1CCN(c2ccccn2)CC1)c1ccccc1 | > 100 | – | – | > 100 | > 100 | > 100 | > 100 | > 100 | > 100 | > 100 | > 100 | > 100 | > 100 | > 100 | > 100 | > 100 | > 100 | – | > 100 | > 100 |
| Cc1ccc(C2C(Cl)C(=O)N2NC(=O)c2ccc(N)cc2)cc1 (stereo not drawn) | 40.2 | 49.7 | > 100 | 31.2 | 50.2 | 25.2 | > 100 | 36.6 | 35.3 | 25.6 | 47.9 | 38.8 | 78.9 | 47.8 | 29.7 | 37.4 | – | – | 65.4 | > 100 |
| COc1ccc(/C(Cl)=C(\C=O)c2ccc(Cl)cc2)cc1OC | > 100 | > 100 | 76.2 | 7.74 | 42.3 | 30.1 | – | 97.3 | 6.62 | 6.27 | > 100 | 28.6 | 62.9 | 14.4 | > 100 | > 100 | 5.81 | – | 36.6 | 73.6 |
